According to patent US9539222B2, “Methods to inhibit intracellular growth of bacteria and to treat bacteria-mediated diseases” (priority 2012, dated 2017):
Read-outs that look alike come from different tables or passages of the source.

Tests used:
Mycobacterium bovis BCG = assay type: cell-based; conditions: for difference from control (untreated infected cells) in mROS and BCG survival: THP1 cells or hMDM infected with BCG, 2 mM MET, 10 mM NAC or GSH, 24 hrs; for effect of ROS scavenger on Metformin-induced inhibition of growth of intracellular BCG: infected THP1 cells, 2 mM Metformin, 10 mM scavenger
[1] = system: H37Rv strain of Mycobacterium tuberculosis (MTB); assay type: cell-based
[2] = system: reactive oxygen species (ROS); assay type: cell-based, human
mycobacterial phagosomes = assay type: cell-based, human
[3] = system: Mycobacterium tuberculosis (MTB); experiment: Acute infection model of MTB in C57BL/6 mice, lung and spleen bacillary load (CFU); assay type: in vivo
[4] = mice; cited from earlier work
BCG = experiment: microbe, parasite or virus in culture; assay type: cell-based, Mycobacterium bovis BCG; conditions: for IC50: Mycobacterium tuberculosis variant bovis BCG, BCG, read-out: IC50 in MIC assay
[5] = 50 mg/Kg oral, 2-4 weeks of treatment

With `N[C@@H](CCC(=O)N[C@@H](CS)C(=O)NCC(=O)O)C(=O)O` [GSH, glutathione] the “difference from control (untreated infected cells) in mROS and BCG survival” value (Mycobacterium bovis BCG) was “not significant”, the “effect of ROS scavenger on Metformin-induced inhibition of growth of intracellular BCG” value (Mycobacterium bovis BCG) was “abolishment” and the “difference from control in MTB survival (CFU)” value [1] was “not significant”.

In the case of `CN(C)C(=N)NC(=N)N.Cl` [Metformin, N,N-dimethyl imidodicarbonimidic diamide hydrochloride], the “mROS, time- and dose-dependent change” value [2] is reported as “increased significantly”, the “production of cytoplasmic ROS (cROS), CM-H2DCFDA” value [2] is reported as “but not of cytoplasmic ROS (cROS)” and the “production of mitochondrial ROS (mROS), MitoSox” value [2] is reported as “increased”. For the same molecule, the “time in which inhibition of mycobacterial growth occurred” value (Mycobacterium bovis BCG; BCG-infected THP1 cells, 2 mM, no further reduction at later time points) was at most 24 h, the “dose dependence of inhibition of intracellular mycobacteria” value (Mycobacterium bovis BCG; BCG-infected THP1 cells, CFU at 24 hrs) was “dose-dependent inhibition” and the “dose dependence of inhibition of intracellular MTB” value [1] was “dose-dependent inhibition”.

In the case of `CC(=O)N[C@@H](CS)C(=O)O` [NAC, N-acetylcysteine], the “effect on Metformin-induced phagosomal acidification” value (mycobacterial phagosomes) is reported as “prevented”, the “difference from control (untreated infected cells) in mROS and BCG survival” value (Mycobacterium bovis BCG) is reported as “not significant” and the “effect of ROS scavenger on Metformin-induced inhibition of growth of intracellular BCG” value (Mycobacterium bovis BCG) is reported as “abolishment”. The “difference from control in MTB survival (CFU)” value ([1]; […], 2 mM MET, 10 mM NAC or GSH, 24 hrs) was “not significant”.

With `Oc1ccc(/C=C/c2cc(O)cc(O)c2)cc1` [Resveratrol, 3,5,4′-trihydroxy-trans-stilbene] the “bacilli load in the lung compared to controls” value ([3]; 25 mg/Kg RES alone, oral) was “did not reduce”, the “CFU in the lung compared to control” value [3, 5] was “less CFU” and the “CFU in the spleen compared to control” value [3, 5] was “less CFU”. The “Oral LD50” value [4] was about 2000 mg/kg.

In the case of `CCCCc1oc2ccccc2c1C(=O)c1cc(I)c(OCCN(CC)CC)c(I)c1` [amiodarone, (2-{4-[(2-butyl-1-benzofuran-3-yl)carbonyl]-2,6-diiodophenoxy}ethyl)diethylamine], the “direct anti-mycobacterial activity in MIC assay” value (BCG; in vitro BCG growth) is reported as “showed inhibition of mycobacterial growth”.

Work on `CO[C@H]1C[C@@H]2CC[C@@H](C)[C@@](O)(O2)C(=O)C(=O)N2CCCC[C@H]2C(=O)O[C@H]([C@H](C)C[C@@H]2CC[C@@H](O)[C@H](OC)C2)CC(=O)[C@H](C)/C=C(\C)[C@@H](O)[C@@H](OC)C(=O)[C@H](C)C[C@H](C)/C=C/C=C/C=C/1C` [rapamycin] yielded an IC50 (BCG) of about 13.8 µM.

In the case of `C=C(C)[C@H]1Cc2c(ccc3c2O[C@@H]2COc4cc(OC)c(OC)cc4[C@@H]2C3=O)O1` [rotenone], the “production of cytoplasmic ROS (cROS), CM-H2DCFDA” value [2] is reported as “upregulated” and the “production of mitochondrial ROS (mROS), MitoSox” value [2] is reported as “upregulated”.

In the case of `CNC1C(OC2C(OC3C(O)C(O)C(NC(=N)N)C(O)C3NC(=N)N)OC(C)C2(O)C=O)OC(CO)C(O)C1O` (stereo not shown) [streptomycin, 5-(2,4-diguanidino-3,5,6-trihydroxy-cyclohexoxy)-4-[4,5-dihydroxy-6-(hydroxymethyl)-3-methylamino-tetrahydropyran-2-yl]oxy-3-hydroxy-2-methyl-tetrahydrofuran-3-carbaldehyde], the IC50 (BCG) is reported as about 0.2 µM.
